Source: patent US9517985B2, “Method for producing butanol using extractive fermentation” (Butamax Advanced Biofuels LLC, priority 2013, dated 2016)
Read-outs that look alike come from different tables or passages of the source.

Key:
isobutanologen [1] = experiment: Secondary screen for solvent biocompatibility (shake flask; Cellometer viability, glucose, isobutanol); settings: 30° C.; for % Viability: relative to oleyl alcohol
[2] = as above; settings: yeast (isobutanologen)
isobutanologen [3] = experiment: Automated primary screen for solvent biocompatibility (96 well plate, propidium iodide dead-cell fluorescence); assay type: cell-based
isobutanologen [4] = experiment: Tertiary screen for solvent biocompatibility (growth of isobutanologen in rich media with solvent, time course); assay type: cell-based; settings: for isobutanol production: FIG. 11, versus oleyl alcohol control; for glucose consumption: FIG. 12, versus oleyl alcohol control; for ethanol consumption: FIG. 13, versus oleyl alcohol control
isobutanologen [5] = system: isobutanologen
isobutanologen [6] = experiment: Three step screening process, overall biocompatibility call
[7] = system: modified Escherichia coli strain; settings: oleyl alcohol as the organic extractant, Example 6 of US 2009/0305370; cited from earlier work
[8] = propidium iodide signal, 1 h exposure, 1:1 aq:org, room temperature

| Molecule | Glucose (isobutanologen [1]; 4 Hours) [g/L] | iBuOH (isobutanologen [1]; 4 Hours) [g/L] | Glucose (isobutanologen [1]; 25 Hours) [g/L] | iBuOH (isobutanologen [1]; 25 Hours) [g/L] | viability at 4 h [2] [%] | viability at 25 h [2] [%] | Glucose (isobutanologen [1]; 30 Hours) [g/L] | iBuOH (isobutanologen [1]; 30 Hours) [g/L] | viability at 30 h [2] [%] | other results |
| --- | --- | --- | --- | --- | --- | --- | --- | --- | --- | --- |
| CCCCOCCOCCCC [1,2-dibutoxyethane] | 11.9 | 0.4 | 10.7 | 0.4 | 63 | 8 | – | – | – | – |
| CC(C)CC(O)CC(C)C [2,6-dimethylheptan-4-ol] | 12.1 | 0.0 | 11.8 | 0.0 | 42 | 8 | – | – | – | – |
| CCCCC(CC)COC(C)=O (stereo not drawn) [2-ethyl hexyl acetate] | 10.5 | 0.6 | 7.1 | 1.2 | – | – | – | – | – | % Dead (isobutanologen [3]; [8]): 3%; % Viability (isobutanologen [1]; 4 Hours, 1:1): 96%; % Viability (isobutanologen [1]; 25 Hours, 1:1): 42% |
| CCCCC(CC)CO (stereo not drawn) [2-ethyl-1-hexanol, reference compound] | 13.1 | 0.0 | 13.7 | 0.0 | 14 | 6 | 16.8 | 0.0 | 47 | viability at 5 h [2]: 58% |
| CCCCC(CC)COCCO (stereo not drawn) [2-ethylhexylglycol ether] | – | – | – | – | – | – | – | – | – | % Dead (isobutanologen [3]; [8]): 79% |
| CC(C)CC(=O)CC(C)C [2.6-dimethylheptan-4-one] | 10.9 | 0.6 | 7.9 | 0.9 | – | – | – | – | – | % Dead (isobutanologen [3]; [8]): 5%; % Viability (isobutanologen [1]; 4 Hours, 1:1): 78%; % Viability (isobutanologen [1]; 25 Hours, 1:1): 26% |
| Cc1cccc2cccnc12 [8-methylquinoline] | – | – | – | – | – | – | 17.5 | 0.0 | 47 | – |
| CCOC(C)(C)C [ETBE] | 12.5 | 0.0 | 12.8 | 0.0 | – | – | – | – | – | % Dead (isobutanologen [3]; [8]): 6%; % Viability (isobutanologen [1]; 4 Hours, 1:1): 16%; % Viability (isobutanologen [1]; 25 Hours, 1:1): 4% |
| COC(C)(C)C [MTBE] | 12.7 | 0.0 | 12.9 | 0.2 | – | – | – | – | – | % Dead (isobutanologen [3]): 19% |
| C1CCC2CCCCC2C1 (stereo not drawn) [decalin] | 11.2 | 0.4 | 10.3 | 0.5 | 76 | 36 | – | – | – | – |
| CCCCCCOCCCCCC [di-n-hexyl ether] | 8.1 | 1.1 | 0.9 | 1.9 | 106 | 62 | – | – | – | – |
| CCCCCCCCOCCCCCCCC [di-n-octyl ether] | – | – | – | – | – | – | 0.0 | 1.9 | 99 | viability at 5 h [2]: 99%; isobutanol production (isobutanologen [4]): comparable to oleyl alcohol; glucose consumption (isobutanologen [4]): comparable to oleyl alcohol; ethanol consumption (isobutanologen [4]): comparable to oleyl alcohol |
| CCCCCCCCCCCC=O [dodecanal] | – | – | – | – | – | – | 0.0 | 0.0 | 62 | viability at 5 h [2]: 78%; biocompatibility (isobutanologen [5]): toxic |
| CCCCCCCCCCCC [dodecane] | – | – | – | – | – | – | 0.0 | 1.9 | 99 | viability at 5 h [2]: 99%; biocompatibility (isobutanologen [6]): biocompatible; isobutanol production (isobutanologen [4]): comparable to oleyl alcohol; glucose consumption (isobutanologen [4]): comparable to oleyl alcohol; ethanol consumption (isobutanologen [4]): comparable to oleyl alcohol |
| CCCCCCCCCCCCO [dodecanol] | – | – | – | – | – | – | – | – | – | biocompatibility (isobutanologen [6]): toxic |
| CC(C)CC(C)(C)C [isooctane] | 10.8 | 0.5 | 8.5 | 0.8 | 90 | 31 | – | – | – | – |
| Cc1cc(C)cc(C)c1 [mesitylene] | 12.5 | 0.0 | 12.1 | 0.1 | 64 | 17 | – | – | – | – |
| CCCCCCCCCCCC(=O)OC [methyl laurate] | 3.9 | 2.1 | 0.0 | 1.6 | 110 | 94 | – | – | – | isobutanol production (isobutanologen [4]): comparable to oleyl alcohol; glucose consumption (isobutanologen [4]): comparable to oleyl alcohol; ethanol consumption (isobutanologen [4]): comparable to oleyl alcohol |
| CCCCOC(C)=O [n-butyl acetate] | – | – | – | – | – | – | 16.6 | 0.0 | 35 | viability at 5 h [2]: 46% |
| CCCCOC(=O)CCC [n-butyl n-butyrate] | 12.4 | 0.0 | 11.7 | 0.0 | 48 | 7 | – | – | – | – |
| CCCCCCCCCC [n-decane] | 5.8 | 1.6 | 0.0 | 2.3 | 107 | 54 | – | – | – | – |
| CCCCCCOC(C)=O [n-hexyl acetate] | 12.8 | 0.0 | 13.0 | 0.0 | 18 | 3 | – | – | – | – |
| CCCCCCCCCCC [n-undecane] | – | – | – | – | – | – | 0.0 | 1.9 | 100 | viability at 5 h [2]: 98%; isobutanol production (isobutanologen [4]): comparable to oleyl alcohol; glucose consumption (isobutanologen [4]): comparable to oleyl alcohol; ethanol consumption (isobutanologen [4]): comparable to oleyl alcohol |
| CCCCCCCC/C=C\CCCCCCCCO [oleyl alcohol, reference compound] | 5.7 | 1.8 | 0.0 | 2.6 | 100 | 100 | 0.0 | 2.2 | 100 | viability at 5 h [2]: 100%; effective titer for isobutanol [7]: 37 g/L |
| primary amyl acetate mixed isomers | – | – | – | – | – | – | – | – | – | % Dead (isobutanologen [3]; [8]): 104% |
| trimethylnonanol | – | – | – | – | – | – | 0.0 | 2.1 | – | % Dead (isobutanologen [3]; [8]): 3%; % Viability (isobutanologen [1]; 5 Hours): 99%; % Viability (isobutanologen [1]; 30 Hours): 98%; biocompatibility (isobutanologen [5]): biocompatible; isobutanol production (isobutanologen [4]): comparable to oleyl alcohol; glucose consumption (isobutanologen [4]): comparable to oleyl alcohol; ethanol consumption (isobutanologen [4]): comparable to oleyl alcohol |
